ChEMBL document CHEMBL1148936, “Benzoic acid derivatives from Piper species and their fungitoxic activity against Cladosporium cladosporioides and C. sphaerospermum” (2004)
The source made the active and inactive calls. The rule behind the calls is not given here.

Legend:
[1] = tested on: Cladosporium cladosporioides; experiment: Antifungal activity against Cladosporium cladosporioides at 100 ug after 72 hrs by TLC; type: functional, organism-based
[2] = tested on: Cladosporium sphaerospermum; experiment: Antifungal activity against Cladosporium sphaerospermum at 100 ug after 72 hrs by TLC; type: functional, organism-based
[3] = tested on: Cladosporium sphaerospermum; experiment: Antifungal activity against Cladosporium sphaerospermum assessed as minimum concentration required to inhibit growth after 72 hrs by TLC; type: functional
[4] = tested on: Cladosporium cladosporioides; experiment: Antifungal activity against Cladosporium cladosporioides assessed as minimum concentration required to inhibit growth after 72 hrs by TLC; type: functional

With `COC(=O)c1ccc(O)c(C(=O)C=C(C)C)c1` the Activity [1] was “inactive” and the Activity [2] was “inactive”.

For `O=C1C[C@@H](c2ccccc2)Oc2cc(O)cc(O)c21` [PINOCEMBRIN], the Activity [3] was 1 µg and the Activity [4] was 1 µg.

`COc1cc(O)c2c(c1)O[C@H](c1ccc(O)cc1)CC2=O` [SAKURANETIN] was tested, and the Activity [3] was 1 µg and the Activity [4] was 1 µg.

`CC(C)=CCC/C(C)=C/Cc1cc(C(=O)O)ccc1O` gave an Activity [3] of 5 µg and an Activity [4] of 5 µg.

`COC(=O)c1ccc(O)c([C@@H]2c3c(OC)cc(O)c(C(=O)CCc4ccccc4)c3O[C@H]2C(C)(C)O)c1` was tested, and the Activity [1] was “inactive” and the Activity [2] was “inactive”.

Work on `COC(=O)c1ccc(O)c(CC(O)C(C)(C)O)c1` (configuration not stated) [HOSTMANIANE] yielded an Activity [3] of 0.5 µg and an Activity [4] of 0.5 µg.

`CC1(C)C=Cc2cc(C(=O)O)ccc2O1` was tested, and the Activity [3] was 5 µg and the Activity [4] was 5 µg.

`COC(=O)c1cc2c(c(CC=C(C)C)c1)OC(C)(C)C=C2` was tested, and the Activity [3] was 0.1 µg and the Activity [4] was 0.1 µg.

`COc1cc(CCC(=O)O)cc(OC)c1OC` was tested, and the Activity [3] was 10 µg and the Activity [4] was 10 µg.

For `CC(C)=CCC/C(C)=C/C(=O)c1cc(O)ccc1O`, the Activity [3] was 1 µg and the Activity [4] was 1 µg.

For `COC(=O)c1ccc2c(c1)C=CC(C)(C)O2`, the Activity [3] was 5 µg and the Activity [4] was 5 µg.

In the case of `COC(=O)c1ccc(O)c(CC=C(C)C)c1`, the Activity [3] is reported as 1 µg and the Activity [4] is reported as 1 µg.

NYSTATIN showed an Activity [3] of 1 µg and an Activity [4] of 1 µg.

Work on `Clc1ccc(COC(Cn2ccnc2)c2ccc(Cl)cc2Cl)c(Cl)c1` (configuration not stated) [MICONAZOLE] yielded an Activity [3] of 1 µg and an Activity [4] of 1 µg.

`COC(=O)c1cc(C(=O)C=C(C)C)ccc1OC` [ADUNCUMENE] showed an Activity [3] of 5 µg and an Activity [4] of 5 µg.

In the case of `COc1cc(O)c(C(=O)CCc2ccccc2)c(O)c1`, the Activity [1] is reported as “inactive” and the Activity [2] is reported as “inactive”.

Compound `COC(=O)c1cc(O)c2c(c1)C=CC(C)(C)O2` has an Activity [3] of 5 µg and an Activity [4] of 5 µg.

In the case of `COc1ccc(C(=O)O)cc1C/C=C(\C)CCC=C(C)C`, the Activity [1] is reported as “inactive” and the Activity [2] is reported as “inactive”.

Work on `CC(C)=CCCC(C)(O)CC(=O)c1cc(C(=O)O)ccc1O` (configuration not stated) [CRASSINERVIC ACID] yielded an Activity [3] of 0.5 µg and an Activity [4] of 0.5 µg.

Compound `CC(C)=CCC[C@@]1(C)C=Cc2cc(C(=O)O)cc(CC=C(C)C)c2O1` has an Activity [3] of 10 µg and an Activity [4] of 10 µg.

`C=C(C)C(O)Cc1cc(C(=O)OC)ccc1O` (configuration not stated) was tested, and the Activity [3] was 5 µg and the Activity [4] was 5 µg.
